Tested on: TPA-induced mouse ear edema
Experiment: TPA-induced mouse ear edema test, single topical application
Assay type: in vivo
Details: Balb/c mice
Procedure: Evaluation of the Anti-Inflammatory Activity of Apratastat after a Single Topical Application in the TPA-Induced Mouse Ear Edema Test on Balb/c Mice (TPA=Tetradecanoylphorbol Acetate)
Edema is induced by single application of 20 μl of TPA dissolved in acetone at 0.01%.
The test compound is diluted in a TPA solution and applied at a concentration of 0.1%, 0.3% to 1%.
A positive control, betamethasone valerate (VdB), is also tested.
The thickness of the mouse ear is measured at T+6 h.

| Compound | reduction of the edema of the ear induced by TPA (single topical application at 0.1% in TPA solution, ear thickness at T+6 h, NS) [%] | reduction of the edema of the ear induced by TPA (single topical application at 0.3% in TPA solution, ear thickness at T+6 h, **) [%] | reduction of the edema of the ear induced by TPA (single topical application at 1% in TPA solution, ear thickness at T+6 h, **) [%] | anti-inflammatory effect (in words) (single topical application, 0.1% to 1%, TPA-induced ear edema) | reduction in the edema of the ear (single topical application at 0.01%, diluted in TPA solution, ear thickness at T+6 h) [%] |
| --- | --- | --- | --- | --- | --- |
| CC1(C)SCCN(S(=O)(=O)c2ccc(OCC#CCO)cc2)[C@H]1C(=O)NO [Apratastat, (3S)—N-hydroxy-4-({4-[(4-hydroxy-2-butynyl)oxy]phenyl}sulfonyl)-2,2-dimethyl-3-thiomorpholinecarboxamide] | 25 | 47 | 49 | dose-dependent anti-inflammatory effect |  |
| CCCCC(=O)O[C@]1(C(=O)CO)[C@@H](C)C[C@H]2[C@@H]3CCC4=CC(=O)C=C[C@]4(C)[C@@]3(F)[C@@H](O)C[C@@]21C [betamethasone valerate, reference compound] |  |  |  |  | 93 |

Reference: patent US20090137569A1, “Administration of (3S)-N-hydroxy-4-(sulfonyl)-2,2-dimethyl-3-thiomorpholine carboxamide or (S)-N_hydroxy-4-[4_(but-2-ynyloxy)phenylsulfonyl]-2,2-dimethyl thimomorpholine-3-carboxamide for preventing and/or treating inflammatory skin pathologies/afflictions” (GALDERMA RESEARCH & DEVELOPMENT, priority 2007, published 2009)
